pIC50: −log10 of the molar value. Values joined by “and” are separate entries in the source; they are usually repeats but may differ in a detail not shown here. Equal entries are not always repeated. Where two headings read alike, the source gives them in different places.
Assays:
[1] = biological target: EGFR ins SVD (insertion of SVD between D770 and N771) (Homo sapiens, UniProt P00533, INS767SVD); experiment: Exon 20-Mutant-EGFR(D770_N771insSVD) kinase assay (TR-FRET); assay type: biochemical
EGFR ins SVD (insertion of SVD between D770 and N771), sequence (P00533 with tags, fused parts or gaps INS767SVD limits assumed): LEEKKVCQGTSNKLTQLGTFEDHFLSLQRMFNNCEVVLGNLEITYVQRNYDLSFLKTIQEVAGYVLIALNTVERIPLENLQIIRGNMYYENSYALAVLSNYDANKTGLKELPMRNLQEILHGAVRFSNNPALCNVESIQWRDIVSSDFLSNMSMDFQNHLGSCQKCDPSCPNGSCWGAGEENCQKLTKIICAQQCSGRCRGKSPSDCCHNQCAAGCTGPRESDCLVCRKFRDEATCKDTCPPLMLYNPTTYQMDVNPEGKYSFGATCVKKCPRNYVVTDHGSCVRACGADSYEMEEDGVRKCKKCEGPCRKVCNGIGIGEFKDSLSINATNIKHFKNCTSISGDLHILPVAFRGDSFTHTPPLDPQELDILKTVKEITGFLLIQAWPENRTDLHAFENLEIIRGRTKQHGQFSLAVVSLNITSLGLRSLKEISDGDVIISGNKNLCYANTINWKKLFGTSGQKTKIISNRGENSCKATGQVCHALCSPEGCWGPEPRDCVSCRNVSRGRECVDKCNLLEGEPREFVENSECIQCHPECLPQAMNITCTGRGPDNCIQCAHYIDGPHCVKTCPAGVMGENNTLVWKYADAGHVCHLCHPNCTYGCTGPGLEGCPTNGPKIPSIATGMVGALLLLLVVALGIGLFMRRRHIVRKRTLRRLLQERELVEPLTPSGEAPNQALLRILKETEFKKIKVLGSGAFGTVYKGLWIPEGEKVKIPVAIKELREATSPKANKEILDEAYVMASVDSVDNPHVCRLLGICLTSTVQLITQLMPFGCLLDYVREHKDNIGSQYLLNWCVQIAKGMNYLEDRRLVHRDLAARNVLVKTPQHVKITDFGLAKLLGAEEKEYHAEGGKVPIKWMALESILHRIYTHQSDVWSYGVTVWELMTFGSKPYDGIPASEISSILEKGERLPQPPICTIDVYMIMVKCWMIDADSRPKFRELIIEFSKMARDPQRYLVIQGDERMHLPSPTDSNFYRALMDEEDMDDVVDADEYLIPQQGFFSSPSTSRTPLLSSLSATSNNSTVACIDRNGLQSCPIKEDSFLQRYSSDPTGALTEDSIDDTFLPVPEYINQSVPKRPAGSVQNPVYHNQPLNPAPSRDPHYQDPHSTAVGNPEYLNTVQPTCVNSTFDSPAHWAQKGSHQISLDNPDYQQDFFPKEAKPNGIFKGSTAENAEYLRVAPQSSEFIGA
Protocol: Exon 20-Mutant-EGFR(D770_N771insSVD) Kinase Assay
Inhibitory activity of compounds of the present invention against an Epidermal Growth Factor Receptor (EGFR) with an insertion of the amino acids sequence SVD between D770 and N771 was quantified employing the TR-FRET based kinase activity assay as described in the following paragraphs.
For the assay 50 nl of a 100-fold concentrated solution of the test compound in DMSO was pipetted into either a black low volume 384 well microtiter plate or a black 1536 well microtiter plate (both Greiner Bio-One, Frickenhausen, Germany), 2 μl of a solution of EGFR in aqueous assay buffer [50 mM Hepes pH 7.0, 10 mM MgCl2, 1 mM dithiothreitol, 0.5 mM EGTA, 0.3 mM activated sodium ortho-vanadate, 0.005% (w/v) bovine serum albumin, 0.005% (v/v) Tween-20] were added and the mixture was incubated for 15 min at 22° C. to allow pre binding of the test compounds to the enzyme before the start of the kinase reaction. […] The concentration of EGFR was adjusted depending of the activity of the enzyme lot and was chosen appropriate to have the assay in the linear range, typical concentration was 15 pg/μl. The reaction was stopped by the addition of 3 μl of a solution of HTRF detection reagents (83.3 nM streptavidine-XL665 [Cisbio Bioassays, Codolet, France] and 1.67 nM PT66-Tb-Cryptate, a terbium-cryptate labelled anti-phospho-tyrosine antibody from Cisbio Bioassays [instead of the PT66 Tb cryptate PT66 Eu Chelate from Perkin Elmer can also be used]) in an aqueous EDTA-solution (133.3 mM EDTA, 0.2% (w/v) bovine serum albumin in 50 mM HEPES pH 7.5).
(§2) The resulting mixture was incubated 1 h at 22° C. to allow the binding of the biotinylated phosphorylated peptide to the streptavidine-XL665 and the PT66-Tb-Cryptate. Subsequently the amount of phosphorylated substrate was evaluated by measurement of the resonance energy transfer from the PT66-Tb-Cryptate to the streptavidine-XL665.

[2] = biological target: EGFR ins ASV (insertion of ASV between V769 and D770); experiment: Exon 20-Mutant-EGFR(V769_D770insASV) kinase assay (TR-FRET); assay type: biochemical, human; details: 2 mM ATP
Protocol: Exon 20-Mutant-EGFR(V769_D770insASV) Kinase Assay
Inhibitory activity of compounds of the present invention against an Epidermal Growth Factor Receptor (EGFR) with an insertion of the amino acids sequence ASV between V769 and D770 was quantified employing the TR-FRET based kinase activity assay as described in the following paragraphs.
For the assay 50 nl of a 100-fold concentrated solution of the test compound in DMSO was pipetted into either a black low volume 384well microtiter plate or a black 1536 well microtiter plate (both Greiner Bio-One, Frickenhausen, Germany), 2 μl of a solution of EGFR in aqueous assay buffer [50 mM Hepes pH 7.0, 10 mM MgCl2, 1 mM dithiothreitol, 0.5 mM EGTA, 0.3 mM activated sodium ortho-vanadate, 0.005% (w/v) bovine serum albumin, 0.005% (v/v) Tween-20] were added and the mixture was incubated for 15 min at 22° C. to allow pre binding of the test compounds to the enzyme before the start of the kinase reaction. […] The concentration of EGFR was adjusted depending of the activity of the enzyme lot and was chosen appropriate to have the assay in the linear range, typical concentration was 2.5 pg/μl. The reaction was stopped by the addition of 3 μl of a solution of HTRF detection reagents (83.3 nM streptavidine-XL665 [Cisbio Bioassays, Codolet, France] and 1.67 nM PT66-Tb-Cryptate, an terbium-cryptate labelled anti-phospho-tyrosine antibody from Cisbio Bioassays [instead of the PT66 Tb cryptate PT66 Eu Chelate from Perkin Elmer can also be used]) in an aqueous EDTA-solution (133.3 mM EDTA, 0.2% (w/v) bovine serum albumin in 50 mM HEPES pH 7.5).
as §2

Bub1 = Bub1 (Homo sapiens (Human), UniProt O43683); experiment: Bub1 kinase assay (TR-FRET, 10 μM ATP); assay type: biochemical; details: mean, read-out: Bub1 kinase assay IC50 [mol/l] (mean)
Bub1, sequence (O43683 704-1085): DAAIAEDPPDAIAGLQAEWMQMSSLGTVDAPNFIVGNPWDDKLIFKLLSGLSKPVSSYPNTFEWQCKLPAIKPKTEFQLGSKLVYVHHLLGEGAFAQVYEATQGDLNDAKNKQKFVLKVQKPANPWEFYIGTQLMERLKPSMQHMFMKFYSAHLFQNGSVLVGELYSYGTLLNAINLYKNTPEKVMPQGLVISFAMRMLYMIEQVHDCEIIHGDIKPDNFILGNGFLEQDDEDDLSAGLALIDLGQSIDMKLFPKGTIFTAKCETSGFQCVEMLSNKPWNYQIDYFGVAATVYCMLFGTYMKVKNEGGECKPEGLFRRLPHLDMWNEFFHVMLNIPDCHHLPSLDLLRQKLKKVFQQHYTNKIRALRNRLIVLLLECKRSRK
Text: Bub1-inhibitory activities of compounds described in the present invention were quantified using a time-resolved fluorescence energy transfer (TR-FRET) kinase assay which measures phosphorylation of the synthetic peptide Biotin-Ahx-[…]—SEQ ID NO: 5 (C-terminus in amide form), purchased from e.g. Biosyntan (Berlin, Germany) by the (recombinant) catalytic domain of human Bub1 (amino acids 704-1085), expressed in Hi5 insect cells with an N-terminal His6-tag (SEQ ID NO: 9) and purified by affinity-(Ni-NTA) and size exclusion chromatography.
In a typical assay 11 different concentrations of each compound (0.1 nM, 0.33 nM, 1.1 nM, 3.8 nM, 13 nM, 44 nM, 0.15 μM, 0.51 μM, 1.7 μM, 5.9 μM and 20 μM) were tested in duplicate within the same microtiter plate. To this end, 100-fold concentrated compound solutions (in DMSO) were previously prepared by serial dilution (1:3.4) of 2 mM stocks in a clear low volume 384-well source microtiter plate (Greiner Bio-One, Frickenhausen, Germany), from which 50 nl of compounds were transferred into a black low volume test microtiter plate from the same supplier. […] The resulting mixture (5 μl final volume) was incubated at 22° C. during 60 min., and the reaction was stopped by the addition of 5 μl of an aqueous EDTA-solution (50 mM EDTA, in 100 mM HEPES pH 7.5 and 0.2% (w/v) bovine serum albumin) which also contained the TR-FRET detection reagents (0.2 μM streptavidin-XL665 [Cisbio Bioassays, Codolet, France] and 1 nM anti-phosho-Serine antibody [Merck Millipore, cat. #35-002] and 0.4 nM LANCE EU-W1024 labeled anti-mouse IgG antibody [Perkin-Elmer, product no. AD0077, alternatively a Terbium-cryptate-labeled anti-mouse IgG antibody from Cisbio Bioassays can be used]). The stopped reaction mixture was further incubated 1 h at 22° C. in order to allow the formation of complexes between peptides and detection reagents. Subsequently, the amount of product was evaluated by measurement of the resonance energy transfer from the Eu-chelate-antibody complex recognizing the Phosphoserine residue to the streptavidin-XL665 bound to the biotin moiety of the peptide. To this end, the fluorescence emissions at 620 nm and 665 nm after excitation at 330-350 nm were measured in a TR-FRET plate reader, e.g. a Rubystar or Pherastar (both from BMG Labtechnologies, Offenburg, Germany) or a Viewlux (Perkin-Elmer) and the ratio of the emissions (665 nm/[…]) was taken as indicator for the amount of phosphorylated substrate. The data were normalised using two sets of control wells for high-(=enzyme reaction without inhibitor=0%=Minimum inhibition) and low-(=all assay components without enzyme=100%=Maximum inhibition) Bub1 activity. IC50 values were calculated by fitting the normalized inhibition data to a 4-parameter logistic equation (Minimum, Maximum, IC50, Hill; Y=Max+(Min−Max)/(1+(X/IC50)Hill)).

Ba/F3-EGFR-insSVD cells = experiment: Proliferation assay in BA/F3 (ins SVD) cells (Cell Titer-Glo); assay type: cell-based
Outline: (§1)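 Ba/F3 cells stably expressing retrovirally transduced EGFR-WT or EGFR-insSVD; WT cells plated with 10 ng/mL EGF, insSVD cells without EGF. Compound exposure 48 h at 37° C; viability read by CellTiter-Glo luminescence.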

Ba/F3-EGFR-WT cells = experiment: Proliferation assay in BA/F3 (wild type) cells (Cell Titer-Glo); assay type: cell-based; details: Mus musculus
Outline: as §1

[3] = 2 mM ATP, mean, read-out: EGFR ins SVD IC50 [mol/l] (mean)
[4] = Table 9, read-out: mutEGFR (D770_N771insSVD) kinase assay IC50
[5] = Mus musculus, BaF3, 48 h, Table 10, plated without EGF
[6] = BaF3, 48 h, Table 10, plated with 10 ng/mL EGF
[7] = Mus musculus, BaF3, Table 10, plated without EGF, 48 h
[8] = BaF3, Table 10, plated with 10 ng/mL EGF, 48 h

Compound | pIC50 [1, 3] | pIC50 [1, 4] | EGFR ins ASV IC50 [mol] (mean) [2] | pIC50 (Bub1) | pIC50 (Ba/F3-EGFR-insSVD cells; [5]) | pIC50 (Ba/F3-EGFR-WT cells; [6]) | pIC50 (Ba/F3-EGFR-insSVD cells; Table 10, plated without EGF, 48 h) | pIC50 (Ba/F3-EGFR-insSVD cells; [7]) | pIC50 (Ba/F3-EGFR-WT cells; [8]) | IC50 [1, 4]
COCCOc1cnccc1-c1[nH]c2c(c1Nc1cc(F)cc(F)c1OC)C(=O)NCC2 [Example 30, 3-[(3,5-difluoro-2-methoxyphenyl)amino]-2-[3-(2-methoxyethoxy)pyridin-4-yl]-1,5,6,7-tetrahydro-4H-pyrrolo[3,2-c]pyridin-4-one] | 10.01 | 9.96 | 2.09e-10 mol | 6.49 | 6.83 | 5.73 |  |  |  | 
COC(C)(C)COc1cnccc1-c1[nH]c2c(c1Nc1cccc(F)c1CC(F)F)C(=O)NCC2 [Example 23, 3-{[2-(2,2-difluoroethyl)-3-fluorophenyl]amino}-2-[3-(2-methoxy-2-methylpropoxy)pyridin-4-yl]-1,5,6,7-tetrahydro-4H-pyrrolo[3,2-c]pyridin-4-one] | 9.59 | 9.72 | 3.42e-10 mol | 7.17 | 7.48 | 6.41 |  |  |  | 
COCCOc1cnccc1-c1[nH]c2c(c1Nc1ccccc1OC(F)F)C(=O)NCC2 [Example 11, 3-{[2-(difluoromethoxy)phenyl]amino}-2-[3-(2-methoxyethoxy)pyridin-4-yl]-1,5,6,7-tetrahydro-4H-pyrrolo[3,2-c]pyridin-4-one] | 9.66 | 9.53 | 4.25e-09 mol | 6.72 | 6.45 | 5.75 |  |  |  | 
COCCOc1cnccc1-c1[nH]c2c(c1Nc1ccccc1OC(F)(F)F)C(=O)NCC2 [Example 14, 2-[3-(2-methoxyethoxy)pyridin-4-yl]-3-{[2-(trifluoromethoxy)phenyl]amino}-1,5,6,7-tetrahydro-4H-pyrrolo[3,2-c]pyridin-4-one] |  |  |  | 6.15 | 5.98 | 5.60 |  |  |  | 
COCCOc1cnccc1-c1[nH]c2c(c1Nc1cc(F)cc(F)c1)C(=O)NCC2 [Example 9, 3-[(3,5-difluorophenyl)amino]-2-[3-(2-methoxyethoxy)pyridin-4-yl]-1,5,6,7-tetrahydro-4H-pyrrolo[3,2-c]pyridin-4-one] | > 10.14 | 9.44 and 9.41 and 10.11 and > 10.14 and 10.00 and 10.02 and 9.71 and 9.69 | 6.15e-09 mol | 7.57 | 6.92 | 6.42 |  |  |  | 
CC(C)(C)CCOc1cnccc1-c1[nH]c2c(c1Nc1cccc(F)c1)C(=O)NCC2 [Example 2, 2-[3-(3,3-dimethylbutoxy)pyridin-4-yl]-3-[(3-fluorophenyl)amino]-1,5,6,7-tetrahydro-4H-pyrrolo[3,2-c]pyridin-4-one] |  |  |  | 7.36 | 8.17 | 5.73 | 8.13 and 8.06 and > 8.32 |  |  | 
CN1CCC[C@H]1COc1cnccc1-c1[nH]c2c(c1Nc1cccc(F)c1)C(=O)NCC2 [Example 8, 3-[(3-fluorophenyl)amino]-2-(3-{[(2S)-1-methylpyrrolidin-2-yl]methoxy}pyridin-4-yl)-1,5,6,7-tetrahydro-4H-pyrrolo[3,2-c]pyridin-4-one] | 9.51 | 9.49 |  | 7.18 |  |  |  | 7.16 | 6.21 | 
CC(C)(COc1cnccc1-c1[nH]c2c(c1Nc1cccc(F)c1)C(=O)NCC2)N1CCOCC1 [Example 7, 3-[(3-fluorophenyl)amino]-2-{3-[2-methyl-2-(morpholin-4-yl)propoxy]pyridin-4-yl}-1,5,6,7-tetrahydro-4H-pyrrolo[3,2-c]pyridin-4-one] | 9.14 | 8.95 |  | 6.40 |  |  |  | 6.34 | 5.57 | 
COc1c(Nc2c(-c3ccncc3OCC(C)(C)OC)[nH]c3c2C(=O)NCC3)ccc(F)c1F [Example 29, 3-[(3,4-difluoro-2-methoxyphenyl)amino]-2-[3-(2-methoxy-2-methylpropoxy)pyridin-4-yl]-1,5,6,7-tetrahydro-4H-pyrrolo[3,2-c]pyridin-4-one] |  |  |  | 6.70 | 6.64 | 5.63 |  |  |  | 
COCCOc1cnccc1-c1[nH]c2c(c1Nc1ccccc1)C(=O)NCC2 [Example 1, 2-[3-(2-methoxyethoxy)pyridin-4-yl]-3-(phenylamino)-1,5,6,7-tetrahydro-4H-pyrrolo[3,2-c]pyridin-4-one] |  |  |  | 7.84 |  |  |  |  |  | 
COC(C)(C)COc1cnccc1-c1[nH]c2c(c1Nc1cc(F)cc(F)c1)C(=O)NCC2 [Example 10, 3-[(3,5-difluorophenyl)amino]-2-[3-(2-methoxy-2-methylpropoxy)pyridin-4-yl]-1,5,6,7-tetrahydro-4H-pyrrolo[3,2-c]pyridin-4-one] | > 10.14 |  |  | 7.91 | 7.24 | 6.45 |  |  |  | < 0.0725 nM (4×) and 0.133 nM
COCCOc1cnccc1-c1[nH]c2c(c1Nc1cccc(F)c1OC)C(=O)NCC2 [Example 16, 3-[(3-fluoro-2-methoxyphenyl)amino]-2-[3-(2-methoxyethoxy)pyridin-4-yl]-1,5,6,7-tetrahydro-4H-pyrrolo[3,2-c]pyridin-4-one] |  |  |  | 6.84 | 7.62 | 6.34 |  |  |  | 
CN(C)CCOc1cnccc1-c1[nH]c2c(c1Nc1cccc(F)c1)C(=O)NCC2 [Example 5, 2-{3-[2-(dimethylamino)ethoxy]pyridin-4-yl}-3-[(3-fluorophenyl)amino]-1,5,6,7-tetrahydro-4H-pyrrolo[3,2-c]pyridin-4-one] | 8.81 | 8.81 | 4.31e-09 mol | 7.49 | 6.25 |  |  |  |  | 
COCCOc1cnccc1-c1[nH]c2c(c1Nc1cccc(F)c1CC(F)F)C(=O)NCC2 [Example 22, 3-{[2-(2,2-difluoroethyl)-3-fluorophenyl]amino}-2-[3-(2-methoxyethoxy)pyridin-4-yl]-1,5,6,7-tetrahydro-4H-pyrrolo[3,2-c]pyridin-4-one] |  |  |  | 6.95 | 6.94 | 5.81 |  |  |  | 
COCCOc1cnccc1-c1[nH]c2c(c1Nc1cccc(F)c1OC(F)F)C(=O)NCC2 [Example 18, 3-{[2-(difluoromethoxy)-3-fluorophenyl]amino}-2-[3-(2-methoxyethoxy)pyridin-4-yl]-1,5,6,7-tetrahydro-4H-pyrrolo[3,2-c]pyridin-4-one] |  |  |  | 6.43 |  |  |  |  |  | 
CCOc1c(F)cccc1Nc1c(-c2ccncc2OCCOC)[nH]c2c1C(=O)NCC2 [Example 25, 3-[(2-ethoxy-3-fluorophenyl)amino]-2-[3-(2-methoxyethoxy)pyridin-4-yl]-1,5,6,7-tetrahydro-4H-pyrrolo[3,2-c]pyridin-4-one] |  |  |  | 6.64 |  | 5.64 |  |  |  | 
COC(C)(C)COc1cnccc1-c1[nH]c2c(c1Nc1cccc(F)c1O)C(=O)NCC2 [Example 24, 3-[(3-fluoro-2-hydroxyphenyl)amino]-2-[3-(2-methoxy-2-methylpropoxy)pyridin-4-yl]-1,5,6,7-tetrahydro-4H-pyrrolo[3,2-c]pyridin-4-one] | 9.27 | 9.27 | 6.34e-10 mol |  |  |  |  |  |  | 
COCCOc1cnccc1-c1[nH]c2c(c1Nc1cccc(F)c1Br)C(=O)NCC2 [Example 12, 3-[(2-bromo-3-fluorophenyl)amino]-2-[3-(2-methoxyethoxy)pyridin-4-yl]-1,5,6,7-tetrahydro-4H-pyrrolo[3,2-c]pyridin-4-one] | 10.07 | 10.07 | 2.18e-10 mol |  |  |  |  |  |  | 

From patent US11339157B1, “4H-pyrrolo[3,2-c]pyridin-4-one derivatives” (Bayer Aktiengesellschaft, priority 2017, dated 2022)
